Measurements: patent US11203757B2, “Use of Rad18 inhibitors in the treatment of tumors” (Centre National De La Recherche Scientifique, priority 2014, dated 2021)

How the values were obtained:
Format in all cases: cell-based
[1] = test system: U87-MG glioblastoma cells; assay: CellTiter-Glo cell viability of U87-MG cells treated with P2207; settings: indicated doses of P2207, 48 h post-treatment, FIG. 7
Experimental: FIG. 7. […] Survival curves of U87-MG glioblastoma cells treated with the indicated doses of the USP7 inhibitor P2207 (Sigma-Aldrich), or DMSO as a control. Means and standard deviations are shown (n=3). Cell viability is expressed as percent (%) of viability compared to the control (DMSO).
Cells were plated at 1.0×10^4 cells/well in 12-well plates and exposed to the indicated amount of P2207 inhibitor (Sigma) or DMSO as control. 48 h post-treatment, cell viability was determined using the CellTiter-Glo luminescent cell viability assay (Promega).

[2] = test system: U87 glioblastoma cell line; assay: Cell viability of U87 cells transfected with Rad18 siRNA and challenged with cisplatin; settings: U87 cells co-transfected with siRNA and empty vector, increasing cisplatin, CellTiter-Glo; rescued by re-expression of Rad18
Description: (E) Survival curves of U87 glioblastoma cells co-transfected with empty vector and non-specific siRNA (siLuc+EV), or Rad18-specific siRNA and empty vector (siRad18+EV) and rescued by co-transfection with Rad18 (siRad18+Rad18), challenged with the indicated doses of cisplatin (CisPt) normalized to non-treated cells (mock). Means and standard deviations are shown (n=3).
U87 cells were co-transfected either with siRNA Rad18 (GAG GAU UCU UCU AGC UGU A; SEQ ID NO:3) or siRNA Luciferase (Luc) as a control and an empty vector (pcDNA3) or Rad18 expressing vector using JETPrime reagent (Polyplus). Twenty-four hours after transfection, cells were trypsinized and seeded in 12 wells plates at a density of 10 000 cells/well. Twenty-four hours later cells were treated with increasing concentration of cisplatin (Sigma).
Cells were plated at 1×10^4 per well in twelve-well plates and UV-irradiated or exposed to the indicated amount of cisplatin (CisPt, Sigma). 48 hours after irradiation, cell viability was determined using the CellTiter-Glo® Luminescent Cell Viability assay (Promega).

[3] = test system: Gb4 glioblastoma cancer stem cells; assay: Proliferation of gliospheres after Rad18 siRNA treatment; settings: 72 hours post-treatment, absence of external damage, versus control siRNA (siLuc)
Experimental: FIG. 6. Rad18 downregulation affects the proliferation of glioblastoma cancer stem cells in the absence of external damage. (A) Western blot of Gb4 glioblastoma cancer stem cells extracts treated with control siRNA (siLuc, lane 1), or a Rad18-specific siRNA (siRad18, lane 2) analysed 72 hours post-treatment. Extracts were probed with anti-Rad18 or anti-PCNA antibodies. (B) Phase contrast microscopy images of gliospheres treated with control siRNA or Rad18-specific siRNA 72 hours post-treatment. (C) Quantification of gliospheres proliferation upon downregulation of Rad18 expression expressed as number of cells. Glioblastoma cancer stem cells extracts were treated as described in panel A and cells were counted before (0 h) or 72 hours post-treatment (72 h).
Glioblastoma cancer stem cells (Gliospheres, Gb4 and Gb7 cell lines) were isolated from patients as described in Clarion et al, 2014.
Cells were maintained in DMEM-F12 (Lonza, Levallois-Perret, France) supplemented with B27 and N2 (Invitrogen, LifeTechnologies, Saint Aubin, France), 25 ng/ml of FGF-2 and EGF (Peprotech, Neuilly sur Seine, France) at 37° C. in 5% CO2 humidified incubators.
Gb4 glioblastoma cancer stem cells extracts, treated with control siRNA or a Rad18-specific siRNA (SEQ ID NO:3) were analysed 72 hours post-treatment. […]

`CC(=O)c1cc([N+](=O)[O-])c(Sc2ccc(F)cc2F)s1` [P2207] was tested, and the “sensitization of glioblastoma to cisplatin treatment (cell viability, % of DMSO control)” value [1] was “sensitizes glioblastoma to cisplatin treatment”.
With “GAG GAU UCU UCU AGC UGU A (GAGGAUUCUUCUAGCUGUA; listed as RNA, chemistry not given here) [Rad18-specific siRNA]” the “sensitivity to cisplatin (cell viability)” value [2] was “strong sensitivity to cisplatin” and the “proliferation of gliospheres (number of cells)” value [3] was “affect the proliferation of gliospheres”.
